Columns and labels:
Assay type in all cases: in vivo
[1] = system: barnyardgrass (Echinochloa crus-galli); test: Test A preemergence, barnyardgrass; conditions: 0 to 100 scale (0 no effect, 100 complete control)
Outline: (§1)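 Greenhouse pot test in loam/sand soil. Pre: directed soil spray after seeding. Post: 1–2-leaf plants, 2–10 cm. Formulation: non-phytotoxic solvent + surfactant. Visual rating vs untreated controls at ~10 d, 0 (no effect) to 100 (complete control).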

kochia (Kochia scoparia) [2] = test: Test A preemergence, kochia; conditions: 0 to 100 scale (0 no effect, 100 complete control)
Outline: as §1

[3] = system: ragweed (common ragweed, Ambrosia elatior); test: Test A preemergence, ragweed; conditions: 0 to 100 scale (0 no effect, 100 complete control)
Outline: as §1

[4] = system: ryegrass, Italian (Lolium multiflorum); test: Test A preemergence, Italian ryegrass; conditions: 0 to 100 scale (0 no effect, 100 complete control)
Outline: as §1

[5] = system: foxtail, giant (Setaria faberii); test: Test A preemergence, giant foxtail; conditions: 0 to 100 scale (0 no effect, 100 complete control)
Outline: as §1

[6] = system: pigweed (Amaranthus retroflexus); test: Test A preemergence, pigweed; conditions: 0 to 100 scale (0 no effect, 100 complete control)
Outline: as §1

[7] = system: barnyardgrass (Echinochloa crus-galli); test: Test A postemergence, barnyardgrass; conditions: visual injury, 0 to 100 scale (0 no effect, 100 complete control), approximately 10 days
Outline: as §1

kochia (Kochia scoparia) [8] = test: Test A postemergence, kochia; conditions: visual injury, 0 to 100 scale (0 no effect, 100 complete control), approximately 10 days
Outline: as §1

[9] = system: ragweed (common ragweed, Ambrosia elatior); test: Test A postemergence, ragweed; conditions: visual injury, 0 to 100 scale (0 no effect, 100 complete control), approximately 10 days
Outline: as §1

[10] = system: ryegrass, Italian (Lolium multiflorum); test: Test A postemergence, Italian ryegrass; conditions: visual injury, 0 to 100 scale (0 no effect, 100 complete control), approximately 10 days
Outline: as §1

[11] = system: foxtail, giant (Setaria faberii); test: Test A postemergence, giant foxtail; conditions: visual injury, 0 to 100 scale (0 no effect, 100 complete control), approximately 10 days
Outline: as §1

[12] = system: pigweed (Amaranthus retroflexus); test: Test A postemergence, pigweed; conditions: visual injury, 0 to 100 scale (0 no effect, 100 complete control), approximately 10 days
Outline: as §1

[13] = system: blackgrass (Alopecurus myosuroides); test: Test A postemergence, blackgrass; conditions: visual injury, 0 to 100 scale (0 no effect, 100 complete control), approximately 10 days
Outline: as §1

[14] = system: galium (catchweed bedstraw, Galium aparine); test: Test A postemergence, galium; conditions: visual injury, 0 to 100 scale (0 no effect, 100 complete control), approximately 10 days
Outline: as §1

[15] = system: wheat (Triticum aestivum); test: Test A postemergence, wheat; conditions: visual injury, 0 to 100 scale (0 no effect, 100 complete control), approximately 10 days
Outline: as §1

corn (Zea mays) = test: Test A postemergence, corn; conditions: visual injury, 0 to 100 scale (0 no effect, 100 complete control), approximately 10 days
Outline: as §1

rice (Oryza sativa) = test: Test B flooded paddy test, rice; conditions: applied to paddy water, visual rating after 13 to 15 days, scale 0 (no effect) to 100 (complete control)
Outline: (§2)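 Ratings were visual and made relative to untreated controls after 13 to 15 greenhouse days.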

[16] = system: sedge, umbrella (small-flower umbrella sedge, Cyperus difformis); test: Test B flooded paddy test, umbrella sedge; conditions: applied to paddy water, visual rating after 13 to 15 days, scale 0 (no effect) to 100 (complete control)
Outline: as §2

[17] = system: ducksalad (Heteranthera limosa); test: Test B flooded paddy test, ducksalad; conditions: applied to paddy water, visual rating after 13 to 15 days, scale 0 (no effect) to 100 (complete control)
Outline: as §2

[18] = system: barnyardgrass (Echinochloa crus-galli); test: Test B flooded paddy test, barnyardgrass; conditions: applied to paddy water, visual rating after 13 to 15 days, scale 0 (no effect) to 100 (complete control)
Outline: as §2

SMILES	Plant response rating, Barnyardgrass ([1]; 125 g ai/ha)	Plant response rating, Barnyardgrass ([1]; 500 g ai/ha)	Plant response rating, Kochia (kochia (Kochia scoparia) [2]; 500 g ai/ha)	Plant response rating, Ragweed ([3]; 125 g ai/ha)	Plant response rating, Ragweed ([3]; 500 g ai/ha)	Plant response rating, Ryegrass, Italian ([4]; 125 g ai/ha)	Plant response rating, Ryegrass, Italian ([4]; 500 g ai/ha)	Plant response rating, Foxtail, Giant ([5]; 125 g ai/ha)	Plant response rating, Foxtail, Giant ([5]; 500 g ai/ha)	Plant response rating, Pigweed ([6]; 125 g ai/ha)	Plant response rating, Pigweed ([6]; 500 g ai/ha)	Plant response rating, Barnyardgrass ([7]; 125 g ai/ha)	Plant response rating, Barnyardgrass ([7]; 500 g ai/ha)	Plant response rating, Kochia (kochia (Kochia scoparia) [8]; 125 g ai/ha)	Plant response rating, Kochia (kochia (Kochia scoparia) [8]; 500 g ai/ha)	Plant response rating, Ragweed ([9]; 125 g ai/ha)	Plant response rating, Ragweed ([9]; 500 g ai/ha)	Plant response rating, Ryegrass, Italian ([10]; 125 g ai/ha)	Plant response rating, Ryegrass, Italian ([10]; 500 g ai/ha)	Plant response rating, Foxtail, Giant ([11]; 125 g ai/ha)	also measured
O=C1NCC(c2ccccc2Cn2ccc(C(F)(F)F)n2)C1C(=O)Nc1cccc(F)c1F (centres unmarked) [Compound 57]	40	90	0	0	0	0	0	60	90	0	0	0	60	0	20	0	30	0	0	40	Plant response rating, Foxtail, Giant ([11]; 500 g ai/ha): 70; Plant response rating, Pigweed ([12]; 125 g ai/ha): 0; Plant response rating, Pigweed ([12]; 500 g ai/ha): 20; Plant response rating, Blackgrass ([13]; 125 g ai/ha): 0; Plant response rating, Blackgrass ([13]; 500 g ai/ha): 30; Plant response rating, Galium ([14]; 125 g ai/ha): 0; Plant response rating, Galium ([14]; 500 g ai/ha): 20; Plant response rating, Wheat ([15]; 125 g ai/ha): 0; Plant response rating, Wheat ([15]; 500 g ai/ha): 0; Plant response rating, Corn (corn (Zea mays); 125 g ai/ha): 30; Plant response rating, Corn (corn (Zea mays); 500 g ai/ha): 30; Plant response rating, Rice (Flood) (rice (Oryza sativa); 250 g ai/ha): 0; Plant response rating, Sedge, Umbrella (Flood) ([16]; 250 g ai/ha): 0; Plant response rating, Ducksalad (Flood) ([17]; 250 g ai/ha): 0; Plant response rating, Barnyardgrass (Flood) ([18]; 250 g ai/ha): 0
O=C1NCC(c2cccc(Oc3ccccn3)c2)C1C(=O)Nc1ccccc1F (centres unmarked) [Compound 34, N-(2-Fluorophenyl)-2-oxo-4-[3-(2-pyridinyloxy)phenyl]-3-pyrrolidinecarboxamide]	20	90	0	0	0	0	0	70	90	0	0	30	60	0	0	0	0	0	30	30	Plant response rating, Kochia (kochia (Kochia scoparia) [2]; 125 g ai/ha): 0; Plant response rating, Foxtail, Giant ([11]; 500 g ai/ha): 80; Plant response rating, Pigweed ([12]; 125 g ai/ha): 0; Plant response rating, Pigweed ([12]; 500 g ai/ha): 0; Plant response rating, Blackgrass ([13]; 125 g ai/ha): 0; Plant response rating, Blackgrass ([13]; 500 g ai/ha): 20; Plant response rating, Galium ([14]; 125 g ai/ha): 20; Plant response rating, Galium ([14]; 500 g ai/ha): 50; Plant response rating, Wheat ([15]; 125 g ai/ha): 0; Plant response rating, Wheat ([15]; 500 g ai/ha): 0; Plant response rating, Corn (corn (Zea mays); 125 g ai/ha): 0; Plant response rating, Corn (corn (Zea mays); 500 g ai/ha): 0; Plant response rating, Rice (Flood) (rice (Oryza sativa); 500 g ai/ha): 0; Plant response rating, Sedge, Umbrella (Flood) ([16]; 500 g ai/ha): 0; Plant response rating, Ducksalad (Flood) ([17]; 500 g ai/ha): 85; Plant response rating, Barnyardgrass (Flood) ([18]; 500 g ai/ha): 20
C[Si](C)(C)C#Cc1cccc(C2CNC(=O)C2C(=O)Nc2cccc(F)c2F)c1 (centres unmarked) [Compound 33]	60	80	0	0	0	0	0	60	80	0	0	0	50	0	40	0	0	0	0	0	Plant response rating, Kochia (kochia (Kochia scoparia) [2]; 125 g ai/ha): 0; Plant response rating, Foxtail, Giant ([11]; 500 g ai/ha): 50; Plant response rating, Pigweed ([12]; 125 g ai/ha): 0; Plant response rating, Pigweed ([12]; 500 g ai/ha): 0; Plant response rating, Blackgrass ([13]; 125 g ai/ha): 0; Plant response rating, Blackgrass ([13]; 500 g ai/ha): 0; Plant response rating, Galium ([14]; 125 g ai/ha): 0; Plant response rating, Galium ([14]; 500 g ai/ha): 20; Plant response rating, Wheat ([15]; 125 g ai/ha): 0; Plant response rating, Wheat ([15]; 500 g ai/ha): 0; Plant response rating, Corn (corn (Zea mays); 125 g ai/ha): 0; Plant response rating, Corn (corn (Zea mays); 500 g ai/ha): 0; Plant response rating, Rice (Flood) (rice (Oryza sativa); 250 g ai/ha): 0; Plant response rating, Sedge, Umbrella (Flood) ([16]; 250 g ai/ha): 0; Plant response rating, Ducksalad (Flood) ([17]; 250 g ai/ha): 50; Plant response rating, Barnyardgrass (Flood) ([18]; 250 g ai/ha): 0

From patent US10405547B2, “Substituted cyclic amides as herbicides” (FMC Corporation, priority 2015, dated 2019)
